# Laboratory results: patent US20220031736A1, “USE OF ANIONIC CLAY IN PREPARING LEAD-REMOVING MEDICINE” (priority 2019, published 2022)
# “And” between values parts separate entries of the source, which are not always exact repeats. Identical values can stand only once.
# Tested on: rats with chronic lead poisoning
# Experiment: Chronic rat lead poisoning model, administration for treatment
# Assay type: in vivo
# Experimental: After the model was successfully established, the lead was stopped and the rates were fed with distilled water from the 31st day. […] The rats in the positive medicine group were given a dose of 10 mg/kg of sodium dimercaptosuccinate by intragastric administration, and all the intragastric subjects were given in equal volume twice a day for 30 days. On the 60th day, blood samples were collected. Brain, liver and femur samples were collected and stored in liquid nitrogen for later use. After wet digestion, the blood samples and tissues of each group were tested for content of lead by inductively coupled plasma mass spectrometry (ICP-MS), and the lead-removing rates were counted.
# All the data were processed by SPSS 20.0 statistical software. Every group of measurement data was expressed by mean±[…] (mean±SD), and all of which were tested for homogeneity of variance by Levene method first. If the variances were homogeneous, single factor analysis of variance was used among multiple groups, and two-sample T test was used between two groups. If the hypothesis of parameter test was unreasonable, Kruskal-Wallis test was used among multiple groups, while Wilcoxon test was used between two groups. p<0.05 or p<0.01 was statistically significant.
# 40 male SD rats were randomly divided into five groups including a normal group, a model group, a positive medicine group (sodium dimercaptosuccinate group), a high-dose magaldrate group and a low-dose magaldrate group according to their body weights, and each group included 8 rats. Except the rats in the normal group were given ultrapure water, the rats in the model group, the positive medicine group, and the magaldrate groups of each dose drank 0.5% lead acetate ultrapure water solution for 30 days, resulting in chronic lead-exposed models. After the model was successfully established, the lead was stopped and the rates were fed with distilled water from the 31st day. The rats in the normal group were given an equal volume of 0.5% CMC-Na solution by intragastric administration, while the rats in the high-dose magaldrate group and the low-dose magaldrate group were given a high dose of 0.6 g/kg and a low dose of 0.3 g/kg respectively by intragastric administration. The rats in the positive medicine group were given a dose of 10 mg/kg of sodium dimercaptosuccinate by intragastric administration, and all the intragastric subjects were given in equal volume twice a day for 30 days. On the 60th day, blood samples were collected. Brain, liver and femur samples were collected and stored in liquid nitrogen for later use. After wet digestion, the blood samples and tissues of each group were tested for content of lead by inductively coupled plasma mass spectrometry (ICP-MS), and the lead-removing rates were counted. […]
# [1] = 60th day, positive medicine 0.01 g/kg intragastric twice a day for 30 days, mean ± SD
smiles,measurement,setting,value
"O=C([O-])C(S)C(S)C(=O)[O-].[Na+].[Na+] (stereo not shown) [Sodium dimercaptosuccinate, sodium dimercaptosuccinate]",Content of lead in blood,[1],0.058 ± 0.01 µg/g and 0.069 ± 0.01 µg/g and 0.059 ± 0.01 µg/g and 0.073 ± 0.01 µg/g
same,Content of lead in brain,[1],0.129 ± 0.03 µg/g and 0.218 ± 0.04 µg/g and 0.178 ± 0.04 µg/g and 0.165 ± 0.05 µg/g
same,Femur content of lead,[1],32.085 ± 4.73 µg/g and 35.006 ± 3.92 µg/g and 28.075 ± 3.25 µg/g and 33.478 ± 4.86 µg/g
same,"Removing rate, lead in bones","positive medicine group 10 mg/kg, versus model group",0.00%
